The values below come from patent US20120022142A1, “RNA Interference Mediated Inhibition of Signal Transducer and Activator of Transcription 1 (STAT1) Gene Expression Using Short Interfering Nucleic Acid (siNA)” (Merck Sharp & Dohme Corp., priority 2009, published 2012).

The data set relates to STAT1 mRNA. Put plainly: Stat1 mRNA knockdown and EC50 in human bronchial epithelial cells (NHBE). In kind it is cell-based. Particulars: 48 hours post transfection, mean of 3 donors; for EC50: Stat1 mRNA knockdown; for Maximum mRNA Knockdown: Stat1 mRNA. How it is done: Human Bronchial Epithelial cells (NHBE cells) obtained from Lonza (Cat. No. CC-2540) were grown at 37 degrees in the presence of 5% CO2 and cultured in BEBM basal medium (Lonza, Cat. No. CC-3171) on Biocoat Collagen1 coated flasks (Becton Dickinson).
Cells were plated in collagen 1 coated plates and cultured in appropriate culture media. The cells were cultured for 24 hours after plating at 37 deg in the presence of 5% CO2. siNAs were diluted in OptiMEM 1 to 1 uM and the transfection agent to 25 ug/ml. For formulation of the siNAs equal volumes of the diluted siNA and delivery lipid were combined and incubated for 20 minutes at room temperature. Cells were meanwhile trypsinised and resuspended in antibiotic free BEBM media at 150,000 cells/ml. 20 ul of the formulated siNA and 80 ul of BEBM media was added per well of a 96 well plate (6 replicates/data point/siNA concentration) so as to give a nine point dose range of the siNAs (100 nM, 30 nM, 10 nM, 3 nM, 1 nM, 0.3 nM, 0.1 nM, 0.03 nM, 0.01 nM). The time of incubation with the transfection agent-siNA complexes were 48 hours with one change of media at 24 hours.
Total RNA was isolated from the cells in the 96-well plate format using the Automated SV96 Total RNA Isolation System (Promega) according to the manufacturer's instructions. The Biomek 2000 Laboratory Automation Workstation (Beckman Coulter) was used to apply the transfected cell lysates to a silica membrane. RNase-Free DNase I was then applied directly to the silica membrane to digest contaminating genomic DNA. The bound total RNA was further purified from contaminating salts, proteins and cellular impurities by simple washing steps. Finally, total RNA was eluted from the membrane by the addition of Nuclease-Free Water.
A series of probes and primers were used for the detection of mRNA transcripts of STAT1, OAS1, and GAPDH (as control/normalisation) in the human cell lines. The assays were performed on an ABI 7900HT instrument according to the manufacturer's instructions.
With TaqMan data, critical threshold values (Ct) were converted to copy numbers corresponding to the particular gene analysed in each well of the 384 well plate. Six identical wells were prepared in each plate for a given treatment. […] Determination of the percentage coefficient of variation (CV) (% C.V.=[standard deviation/average]*100) allowed the omitting of wells whose value was an outlier (so that % C.V.<25). Relative abundance (aka relative expression) of a gene was determined by dividing the mean copy number of that gene with its GAPDH counterpart in that particular sample.
EC50 values were calculated from the data using sigma plot. All calculations of the efficacy and potency of the siNAs were done relative to the non-targeting control siNA.

[invAb] = inverted abasic unit; m = 2'-O-methyl; r = 2'-OH (RNA); f = 2'-fluoro

In general, EC50 refers to the concentration at which the effect is half-maximal. For “25372-DC: STAT1 siNA duplex, human target site 968; modified strands SEQ ID NO: 81 and 82 (chain 1 UUGACAAUAAGAGAAAGGATT; chain 2 UCCUUUCUCUUAUUGUCAAUU; chain 1: DNA at AGT, 2'-fluoro at CU, [invAb] at 5' end, 3' end, backbone not given here; chain 2: sugars from the 5' end rrrffffffffmffmffmmmm, backbone not given here)”, the response was half-maximal at 0.5 nM (EC50) and the “Maximum mRNA Knockdown” value is reported as 96%.

“25368-DC: STAT1 siNA duplex, human target site 782; modified strands SEQ ID NO: 73 and 74 (chain 1 GUAAAGUCAGAAAUGUGAATT; chain 2 UUCACAUUUCUGACUUUACUU; chain 1: DNA at AGT, 2'-fluoro at CU, [invAb] at 5' end, 3' end, backbone not given here; chain 2: sugars from the 5' end rrrmfmfffffmmffffmfmm, backbone not given here)”: the midpoint of the response, the EC50, lay at 0.06 nM and the “Maximum mRNA Knockdown” value is 93%.
